Values belong to the compound of their own block, whether it stands above or below them. Calls of active or inactive are those of the source.
Tests used:
[1] = Vero cell cytotoxicity, dose response, cytotoxicity control for Vif-APOBEC3G degradation inhibitor project, Vero cells (AID 1117358); type: functional; conditions: Human immunodeficiency virus 1, Vero
[2] = molecular target: Voltage-gated inwardly rectifying potassium channel KCNH2 (Homo sapiens, UniProt Q12809); assay: hERG protection from proarrhythmic block, potency, dose response, cell-based, thallium flux (AID 2121); type: ADME
Voltage-gated inwardly rectifying potassium channel KCNH2, sequence (Q12809 whole entry): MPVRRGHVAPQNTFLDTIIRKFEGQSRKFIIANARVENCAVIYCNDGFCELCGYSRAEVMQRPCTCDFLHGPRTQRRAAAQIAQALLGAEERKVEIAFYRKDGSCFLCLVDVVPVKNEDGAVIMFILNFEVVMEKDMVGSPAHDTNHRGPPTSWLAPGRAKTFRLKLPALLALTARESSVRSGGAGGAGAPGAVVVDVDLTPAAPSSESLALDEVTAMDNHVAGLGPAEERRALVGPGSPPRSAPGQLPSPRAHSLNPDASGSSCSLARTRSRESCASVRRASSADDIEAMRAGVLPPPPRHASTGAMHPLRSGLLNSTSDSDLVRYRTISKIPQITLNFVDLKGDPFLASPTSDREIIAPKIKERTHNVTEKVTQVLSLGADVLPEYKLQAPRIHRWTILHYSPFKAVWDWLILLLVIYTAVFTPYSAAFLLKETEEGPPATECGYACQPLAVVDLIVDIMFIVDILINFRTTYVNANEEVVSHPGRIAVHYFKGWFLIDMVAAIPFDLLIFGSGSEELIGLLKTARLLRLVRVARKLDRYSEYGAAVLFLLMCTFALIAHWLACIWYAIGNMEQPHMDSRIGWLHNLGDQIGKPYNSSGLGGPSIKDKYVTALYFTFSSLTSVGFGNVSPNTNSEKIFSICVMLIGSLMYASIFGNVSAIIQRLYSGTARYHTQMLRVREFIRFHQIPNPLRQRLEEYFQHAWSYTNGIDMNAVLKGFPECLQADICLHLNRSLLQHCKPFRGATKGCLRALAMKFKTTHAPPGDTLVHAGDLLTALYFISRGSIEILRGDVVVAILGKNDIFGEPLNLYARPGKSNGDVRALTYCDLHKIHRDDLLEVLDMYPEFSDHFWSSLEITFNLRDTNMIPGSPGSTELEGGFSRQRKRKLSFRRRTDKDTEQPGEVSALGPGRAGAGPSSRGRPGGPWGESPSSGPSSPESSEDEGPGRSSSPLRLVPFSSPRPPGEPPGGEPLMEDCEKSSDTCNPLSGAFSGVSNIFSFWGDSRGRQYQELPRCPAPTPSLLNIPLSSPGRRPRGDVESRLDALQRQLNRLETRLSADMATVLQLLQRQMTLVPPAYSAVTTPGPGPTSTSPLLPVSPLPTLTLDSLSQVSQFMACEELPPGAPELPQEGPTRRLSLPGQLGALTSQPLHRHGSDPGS

Kallikrein-7 = Kallikrein-7 (Homo sapiens, UniProt P49862); assay: Fluorescence Intensity-based biochemical primary high throughput dose response assay to identify activators of kallikrein-7 (K7) zymogen.
Kallikrein-7, sequence (P49862 whole entry): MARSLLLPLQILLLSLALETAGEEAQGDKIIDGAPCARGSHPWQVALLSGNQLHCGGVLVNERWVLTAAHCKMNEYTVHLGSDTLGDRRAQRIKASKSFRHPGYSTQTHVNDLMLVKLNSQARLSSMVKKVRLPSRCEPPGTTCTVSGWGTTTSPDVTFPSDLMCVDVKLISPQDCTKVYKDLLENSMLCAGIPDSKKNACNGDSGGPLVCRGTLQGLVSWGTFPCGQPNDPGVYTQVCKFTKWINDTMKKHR

[3] = molecular target: Heat shock protein HSP 90-alpha (Homo sapiens, UniProt P07900); assay: Luminescence-based dose response biochemical high throughput screening assay for inhibitors of the Heat Shock Protein 90 (HSP90). [Related pubchem assays: 1831 (Summary AID.), 1846 (Confirmation screen.), 1789 (Primary screen.)]
[4] = molecular target: FAD-linked sulfhydryl oxidase ALR (Homo sapiens, UniProt P55789); assay: inhibitors of human ALR sulfhydryl oxidase, dose response, biochemical, H2O2 detection, luminescence, cherry-pick (AID 493248)
FAD-linked sulfhydryl oxidase ALR, sequence (P55789 whole entry): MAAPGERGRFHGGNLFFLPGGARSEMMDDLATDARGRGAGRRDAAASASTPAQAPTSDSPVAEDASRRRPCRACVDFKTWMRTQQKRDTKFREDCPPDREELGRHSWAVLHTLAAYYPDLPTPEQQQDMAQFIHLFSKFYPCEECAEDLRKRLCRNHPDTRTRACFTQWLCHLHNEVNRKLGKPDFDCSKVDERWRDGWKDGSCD

[5] = molecular target: Peroxisome proliferator-activated receptor gamma/Nuclear receptor corepressor 2 (Homo sapiens, UniProt P37231+Q9Y618); assay: Counterscreen for NR2E3 inverse agonists: TR-FRET-based biochemical high throughput dose response assay to identify inverse agonists of the interaction between peroxisome proliferator-activated receptor gamma (PPARg) and nuclear receptor co-repressor 2 (NCOR2).; type: functional
Peroxisome proliferator-activated receptor gamma/Nuclear receptor corepressor 2, sequence (P37231 whole entry): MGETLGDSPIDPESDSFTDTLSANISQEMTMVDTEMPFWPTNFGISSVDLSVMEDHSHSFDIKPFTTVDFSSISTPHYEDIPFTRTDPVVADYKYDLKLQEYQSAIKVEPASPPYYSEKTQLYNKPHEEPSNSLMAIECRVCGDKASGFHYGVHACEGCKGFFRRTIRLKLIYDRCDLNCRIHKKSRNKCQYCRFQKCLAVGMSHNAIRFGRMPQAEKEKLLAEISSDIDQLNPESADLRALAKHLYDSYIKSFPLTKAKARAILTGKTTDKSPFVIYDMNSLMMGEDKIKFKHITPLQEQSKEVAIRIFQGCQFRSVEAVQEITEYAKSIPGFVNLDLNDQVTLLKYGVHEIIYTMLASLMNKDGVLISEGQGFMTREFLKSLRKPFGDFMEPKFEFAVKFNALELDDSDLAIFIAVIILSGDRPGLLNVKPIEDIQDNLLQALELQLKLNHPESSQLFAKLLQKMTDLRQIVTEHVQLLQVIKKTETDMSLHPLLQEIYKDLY
Peroxisome proliferator-activated receptor gamma/Nuclear receptor corepressor 2, sequence (Q9Y618 whole entry): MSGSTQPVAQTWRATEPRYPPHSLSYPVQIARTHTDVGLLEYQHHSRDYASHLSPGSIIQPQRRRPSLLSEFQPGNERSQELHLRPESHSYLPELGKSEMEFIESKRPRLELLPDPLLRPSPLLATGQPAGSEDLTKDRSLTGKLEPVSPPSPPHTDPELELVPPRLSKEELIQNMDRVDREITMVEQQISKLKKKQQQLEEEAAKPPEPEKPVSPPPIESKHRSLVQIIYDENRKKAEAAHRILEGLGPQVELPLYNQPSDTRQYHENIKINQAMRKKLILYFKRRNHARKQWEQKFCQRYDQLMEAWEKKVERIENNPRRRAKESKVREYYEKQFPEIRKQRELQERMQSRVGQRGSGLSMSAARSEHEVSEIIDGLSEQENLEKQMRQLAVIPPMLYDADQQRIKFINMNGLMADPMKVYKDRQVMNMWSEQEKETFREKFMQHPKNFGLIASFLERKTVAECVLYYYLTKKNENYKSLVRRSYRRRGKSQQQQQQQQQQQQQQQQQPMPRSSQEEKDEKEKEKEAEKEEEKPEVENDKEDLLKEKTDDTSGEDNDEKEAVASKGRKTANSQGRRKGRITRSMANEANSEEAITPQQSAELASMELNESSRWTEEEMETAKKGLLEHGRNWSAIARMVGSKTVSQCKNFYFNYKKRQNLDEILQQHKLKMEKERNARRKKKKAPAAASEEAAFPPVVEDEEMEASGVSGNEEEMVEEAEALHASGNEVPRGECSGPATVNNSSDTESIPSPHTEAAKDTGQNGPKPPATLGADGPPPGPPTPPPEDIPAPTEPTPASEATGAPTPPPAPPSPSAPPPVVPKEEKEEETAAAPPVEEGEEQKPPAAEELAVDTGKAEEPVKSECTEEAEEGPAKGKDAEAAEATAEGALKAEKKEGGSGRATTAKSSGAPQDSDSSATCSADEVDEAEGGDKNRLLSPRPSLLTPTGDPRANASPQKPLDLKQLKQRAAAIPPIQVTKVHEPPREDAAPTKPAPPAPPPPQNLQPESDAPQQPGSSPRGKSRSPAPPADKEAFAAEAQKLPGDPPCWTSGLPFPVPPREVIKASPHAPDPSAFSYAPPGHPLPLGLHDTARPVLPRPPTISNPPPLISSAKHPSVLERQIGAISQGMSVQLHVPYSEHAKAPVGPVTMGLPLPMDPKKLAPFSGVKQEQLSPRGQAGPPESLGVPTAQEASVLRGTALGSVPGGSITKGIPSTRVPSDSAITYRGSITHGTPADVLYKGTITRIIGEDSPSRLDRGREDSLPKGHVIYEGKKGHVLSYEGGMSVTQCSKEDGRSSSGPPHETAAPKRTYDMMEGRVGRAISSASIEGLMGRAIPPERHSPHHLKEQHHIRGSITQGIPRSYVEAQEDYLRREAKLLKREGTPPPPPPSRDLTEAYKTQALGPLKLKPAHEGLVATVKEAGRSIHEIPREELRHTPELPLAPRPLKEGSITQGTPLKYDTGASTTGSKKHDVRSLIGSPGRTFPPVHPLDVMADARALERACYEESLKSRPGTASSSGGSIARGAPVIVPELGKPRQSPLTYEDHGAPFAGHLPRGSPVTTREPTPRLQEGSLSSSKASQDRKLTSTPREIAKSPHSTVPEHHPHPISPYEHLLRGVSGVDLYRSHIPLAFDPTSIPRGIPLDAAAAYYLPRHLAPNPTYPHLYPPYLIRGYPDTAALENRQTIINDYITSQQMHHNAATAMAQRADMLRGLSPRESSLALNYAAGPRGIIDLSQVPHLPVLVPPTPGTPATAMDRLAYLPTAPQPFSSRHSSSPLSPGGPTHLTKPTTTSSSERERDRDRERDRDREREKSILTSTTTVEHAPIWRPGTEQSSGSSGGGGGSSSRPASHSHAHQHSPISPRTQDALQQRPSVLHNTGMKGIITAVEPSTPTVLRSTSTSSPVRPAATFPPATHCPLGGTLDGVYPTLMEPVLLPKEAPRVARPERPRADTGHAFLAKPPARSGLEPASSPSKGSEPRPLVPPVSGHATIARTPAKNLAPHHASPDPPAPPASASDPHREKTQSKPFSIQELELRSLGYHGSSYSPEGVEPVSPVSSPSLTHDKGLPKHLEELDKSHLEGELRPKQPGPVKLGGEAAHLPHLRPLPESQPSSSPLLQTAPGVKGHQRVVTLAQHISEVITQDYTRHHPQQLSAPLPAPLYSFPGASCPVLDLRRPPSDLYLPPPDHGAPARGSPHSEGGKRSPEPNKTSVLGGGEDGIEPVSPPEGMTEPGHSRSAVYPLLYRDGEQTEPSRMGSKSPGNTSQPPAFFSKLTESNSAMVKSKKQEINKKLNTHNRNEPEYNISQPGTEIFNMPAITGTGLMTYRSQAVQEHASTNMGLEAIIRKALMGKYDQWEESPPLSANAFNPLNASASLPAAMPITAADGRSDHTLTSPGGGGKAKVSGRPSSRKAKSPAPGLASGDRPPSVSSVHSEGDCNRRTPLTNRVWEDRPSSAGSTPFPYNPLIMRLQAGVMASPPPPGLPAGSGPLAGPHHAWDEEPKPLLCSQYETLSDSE

[6] = molecular target: Photoreceptor-specific nuclear receptor (Homo sapiens, UniProt Q9Y5X4); assay: NR2E3 inverse agonists, dose response, biochemical, TR-FRET (AID 463256); type: functional
Photoreceptor-specific nuclear receptor, sequence (Q9Y5X4 whole entry): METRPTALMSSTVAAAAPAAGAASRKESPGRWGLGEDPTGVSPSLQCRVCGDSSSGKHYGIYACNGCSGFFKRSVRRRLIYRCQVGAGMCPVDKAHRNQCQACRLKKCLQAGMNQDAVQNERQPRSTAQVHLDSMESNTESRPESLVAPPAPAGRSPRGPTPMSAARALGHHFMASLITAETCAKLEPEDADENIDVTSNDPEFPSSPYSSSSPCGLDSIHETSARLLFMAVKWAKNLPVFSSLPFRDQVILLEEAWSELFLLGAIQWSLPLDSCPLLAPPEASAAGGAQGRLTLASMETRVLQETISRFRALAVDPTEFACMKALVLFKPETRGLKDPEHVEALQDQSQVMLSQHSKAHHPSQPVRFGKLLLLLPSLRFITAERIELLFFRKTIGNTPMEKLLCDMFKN

[7] = molecular target: 1-phosphatidylinositol 4,5-bisphosphate phosphodiesterase gamma-1 (Homo sapiens, UniProt P19174); assay: Counterscreen for inhibitors of phospholipase C isozymes (PLC-B3): Fluorescence-based biochemical high throughput dose response assay to identify inhibitors of phospholipase C isozymes (PLC-gamma1).
[8] = molecular target: 1-phosphatidylinositol 4,5-bisphosphate phosphodiesterase beta-3 (Homo sapiens, UniProt Q01970); assay: Fluorescence-based biochemical high throughput dose response assay to identify inhibitors of phospholipase C isozymes (PLC-B3).
[9] = molecular target: T1, Ubiquitin-conjugating enzyme E2 N (Homo sapiens, UniProt P61088); type: functional;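 further: Dose-response confirmation in a TR-FRET assay detecting UBC13-driven polyubiquitin chain formation, inhibition measured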
T1 sequence (P61088 whole entry): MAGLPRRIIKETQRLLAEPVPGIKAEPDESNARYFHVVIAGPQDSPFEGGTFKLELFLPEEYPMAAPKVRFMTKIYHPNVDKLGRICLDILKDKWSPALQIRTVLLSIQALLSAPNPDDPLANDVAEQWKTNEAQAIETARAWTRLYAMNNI

[10] = P. falciparum late gametocyte killing, dose response, luminescence (AID 1117278); type: functional, cell-based;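 further: gametocytes exposed to compound for 24 hours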
[11] = Jurkat T cell cytotoxicity, dose response, cytotoxicity control for P. falciparum gametocyte viability project, luminescence (AID 1117277); type: functional, cell-based;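 further: potency reflects loss of cellular ATP meaning fewer viable cells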
Prothrombin = Prothrombin (Homo sapiens, UniProt P00734); assay: Thrombin 1536 HTS Dose Response Confirmation. [Related pubchem assays: 1046 (Thrombin 1536 HTS; hits were confirmed in this assay)]; type: functional
[12] = Shn3 3'UTR reporter inhibitors, dose response, cell-based, Clone20 osteoblasts, firefly luciferase, cherry-picked (AID 624132); type: functional;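 further: firefly luciferase luminescence from reporter carrying the Shn3 3'UTR in osteoblasts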
[13] = HepG2 cell cytotoxicity, dose response, cytotoxicity control for Shn3 inhibitor project, CellTiter-Glo, cherry-picked (AID 624134); type: functional, cell-based
[14] = control 3'UTR Renilla luciferase suppression, dose response, counter-screen for Shn3 inhibitor project, cell-based, Clone20-Shn3RL, cherry-picked (AID 624133); type: functional
[15] = CEM21 lymphoblast cell cytotoxicity, dose response, cytotoxicity control for viral fusion inhibitor project, CellTiter-Glo luminescence, cherry-picked (AID 652042); type: functional, cell-based;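 further: potency for signal decrease meaning cytotoxicity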
[16] = inhibitors of clade B AD8 Env fusion, dose response, cell-based, cherry-pick (AID 652062); type: functional;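 further: luciferase signal from cell-cell fusion driven by HIV-1 clade B AD8 Env; potency is for inhibitors of fusion seen as a drop in luminescence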

SMILES: Cc1ccc(C)c(S(=O)(=O)Nc2ccc3scnc3c2)c1
CC50 [1]: > 40 µM (active)

SMILES: CCn1c(O)c(N=NC2=NC(=O)CS2)c2ccccc21
EC50 [2]: 4.83 µM (active)

SMILES: Cc1cc(C)c2nc(-c3ccccn3)cc(C(=O)n3cccn3)c2c1
IC50 [9]: > 20 µM (inactive)
IC50 [10]: > 109 µM (inactive)
IC50 [11]: > 83.2 µM (inactive)

SMILES: O=C(Nc1ccccn1)C1CCN(S(=O)(=O)c2cccc3nonc23)CC1
IC50 [10]: > 109 µM (inactive)
IC50 [11]: > 83.3 µM (inactive)

SMILES: CCN(CC)c1ccc(NC(=S)NC(=O)c2cccs2)cc1
EC50 [2]: 1.24 µM (active)

SMILES: Nc1nonc1C(=O)NCCNCc1cc(Br)ccc1OCc1ccccc1F
AC50 [12]: 2.5 µM (active)
AC50 [13]: 40.4 µM (active)
AC50 [14]: 0.91 µM (active)
AC50 [15]: 40.5 µM (active)
AC50 [16]: 14.9 µM (active)

Further lines, results first:

EC50 (Kallikrein-7): > 69.5 µM (inactive)
SMILES: O=C1c2ccccc2NC(c2ccccc2)N1Cc1ccco1 (stereo not drawn)

IC50 [3]: 8.93 µM (active)
AC50 [4]: 3.31 µM (active)
SMILES: O=C(O)c1cccc(N2C(=O)/C(=C/c3nc4ccccc4[nH]3)SC2=S)c1

IC50 [5]: 10.9 µM (not active)
IC50 [6]: 8.84 µM (active)
SMILES: O=C(Nc1ccc(Cl)cc1)c1ccc(-c2ccccn2)s1

IC50 [7]: > 122 µM (inactive)
IC50 [8]: > 122 µM (inactive)
SMILES: COc1cc(C(=O)Nc2ccc3c(c2)C(=O)N(CCC(=O)O)C3=O)cc(OC)c1OC

IC50 [5]: 4.01 µM (active)
IC50 [6]: 3.62 µM (active)
SMILES: O=C(Nc1ccc(-c2ccc3nncn3n2)cc1)c1ccc(Br)o1

IC50 (Prothrombin): 0.297 µM (active)
SMILES: COC(=O)c1nnc(NC(=O)c2ccc(F)cc2)[nH]1
